For one assay, the system named is Aspergillus flavus. The assay is described as follows: Antimicrobial activity against Aspergillus flavus ATCC 15517 after 48 hr by broth micro dilution assay. It is filed as functional. The note with it: ATCC 15517, 48 h.
The test system of another assay is Candida albicans. Put plainly: Antimicrobial activity against Candida albicans ATCC 24433 after 48 hr by broth micro dilution assay. It is filed as functional. The note with it: ATCC 24433, 48 h.
The test system of another assay is Escherichia coli. Put plainly: Antimicrobial activity against Escherichia coli ATCC 25922 after 24 hr by broth micro dilution assay. It is filed as functional. The note with it: ATCC 25922, 24 h.
The test system of a further assay is Staphylococcus aureus. Put plainly: Antimicrobial activity against Staphylococcus aureus ATCC 25923 after 24 hr by broth micro dilution assay. The note with it: ATCC 25923, 24 h. It is filed as functional.
For another assay, the system named is Pseudomonas aeruginosa. Put plainly: Antimicrobial activity against Pseudomonas aeruginosa ATCC 27853 after 24 hr by broth micro dilution assay. It is filed as functional. The note with it: ATCC 27853, 24 h.
For the next assay, the system named is HEp-2. Put plainly: Cytotoxicity against Homo sapiens (human) Hep2 cells after 24 hr by MTT assay. It is filed as functional, cell-based. The settings on record: HEp-2, 24 h. Background: Tetrazolium dyes change colour on reduction, which living cells bring about.
Another assay deals with HeLa. Put plainly: Cytotoxicity against Homo sapiens (human) HeLa cells after 24 hr by MTT assay. It is filed as functional, cell-based.
A short description of assay [1]: Cytotoxicity against Homo sapiens (human) Chang cells after 24 hr by MTT assay. It is filed as functional, cell-based.
Assay [2] deals with Rattus norvegicus. The assay is described as follows: Anti-inflammatory activity in Rattus norvegicus Wistar albino (rat) assessed as carrageenan-induced paw volume at 100 mg/kg, po administered 1 hr prior to carrageenan-challenge measured at 5 hr (reference value: 1.24 +/- 0.0754 mm3). It is filed as functional.
The test system of assay [3] is Rattus norvegicus. The assay is described as follows: Anti-inflammatory activity in Rattus norvegicus Wistar albino (rat) assessed as carrageenan-induced paw volume at 100 mg/kg, po administered 1 hr prior to carrageenan-challenge measured at 4 hr (reference value: 1.2825 +/- 0.0862 mm3). It is filed as functional. A general note: In the carrageenan paw model, swelling and tenderness develop within hours.

In assay [4] the test system is Rattus norvegicus. Put plainly: Anti-inflammatory activity in Rattus norvegicus Wistar albino (rat) assessed as carrageenan-induced paw volume at 100 mg/kg, po administered 1 hr prior to carrageenan-challenge measured at 3 hr (reference value: 1.225 +/- 0.0484 mm3). It is filed as functional.
The test system of assay [5] is Rattus norvegicus. Put plainly: Anti-inflammatory activity in Rattus norvegicus Wistar albino (rat) assessed as carrageenan-induced paw volume at 100 mg/kg, po administered 1 hr prior to carrageenan-challenge measured at 1 hr (reference value: 1.2075 +/- 0.0405 mm3). It is filed as functional.
Assay [6] has as its system Rattus norvegicus. The assay is described as follows: Anti-inflammatory activity in Rattus norvegicus Wistar albino (rat) assessed as carrageenan-induced paw volume at 100 mg/kg, po administered 1 hr prior to carrageenan-challenge measured at 2 hr (reference value: 1.4175 +/- 0.1931 mm3). It is filed as functional.
Assay [7] has as its system Rattus norvegicus. The assay is described as follows: Anti-inflammatory activity in Rattus norvegicus Wistar albino (rat) assessed as inhibition of carrageenan-induced paw edema at 100 mg/kg, po administered 1 hr prior to carrageenan-challenge measured at 2 hr relative to control. It is filed as functional.
The test system of assay [8] is Rattus norvegicus. Put plainly: Anti-inflammatory activity in Rattus norvegicus Wistar albino (rat) assessed as inhibition of carrageenan-induced paw edema at 100 mg/kg, po administered 1 hr prior to carrageenan-challenge measured at 1 hr relative to control. It is filed as functional.

Results on eight molecules are retold here after ChEMBL document CHEMBL3045939, “Synthesis and evaluation of fused pyrimidine derivatives as anti-inflammatory, antiproliferative and antimicrobial agents” (Med Chem Res, 2012).

Structures are written as SMILES. Converted amounts (≈) assume the structure as drawn.

In general, MIC refers to the lowest concentration that inhibits growth of the organism. High values mean a less susceptible organism, low ones a more susceptible organism. As usually defined, the IC50 is the concentration needed to halve the response being measured. Take `COc1ccc(-n2c(-c3ccccc3)nc3ccc(Cl)cc3c2=O)cc1`: the MIC is over 100 µg/mL in the assay with Aspergillus flavus; 12.5 µg/mL (≈ 34.5 µM) against Candida albicans; 1.56 µg/mL (≈ 4.3 µM) against Escherichia coli; 3.12 µg/mL (≈ 8.6 µM) against Staphylococcus aureus; 3.12 µg/mL (≈ 8.6 µM) with Pseudomonas aeruginosa. Further, the values for the IC50 (with HEp-2; in the assay with HeLa; in assay [1]) were 12.5 µg/mL (≈ 34.5 µM), under 50 µg/mL and over 25 µg/mL, respectively. Moreover, the Activity was 1.175 mm3 in the assay on Rattus norvegicus [2], 1.14 mm3 with Rattus norvegicus [3], 1.21 mm3 in the assay with Rattus norvegicus [4] and 1.12 mm3 in the assay with Rattus norvegicus [5].
Usually inhibition in vivo stands for the change of the read-out against control, counted positive when it falls. Turning to `O=c1c2cc(Cl)ccc2nc(-c2ccccc2)n1-c1cccc(Cl)c1`, the MIC against Aspergillus flavus was over 100 µg/mL; in the assay on Candida albicans it was over 100 µg/mL; in the assay with Escherichia coli, 6.25 µg/mL (≈ 17 µM); against Staphylococcus aureus, 3.12 µg/mL (≈ 8.5 µM); against Pseudomonas aeruginosa, 25 µg/mL (≈ 68.1 µM). Also, the figures for the IC50 (in the assay on HEp-2; in the assay with HeLa; in assay [1]) were under 6.25 µg/mL, under 25 µg/mL and under 6.25 µg/mL, respectively. The Activity in the assay on Rattus norvegicus [2] stood at 1.125 mm3; in the assay with Rattus norvegicus [3] it was 1.0575 mm3; in the assay on Rattus norvegicus [4], 1.06 mm3; in the assay on Rattus norvegicus [6], 1.0625 mm3; in the assay with Rattus norvegicus [5], 1.1325 mm3. Moreover, the inhibition in vivo at 100 mg/kg in the assay on Rattus norvegicus [7] is 86.8%.
For the molecule `O=c1c2cc(Cl)ccc2nc(-c2ccccc2)n1-c1ccc(Cl)cc1`, the MIC against Aspergillus flavus is over 100 µg/mL; in the assay on Candida albicans, over 100 µg/mL; against Escherichia coli it was 12.5 µg/mL (≈ 34 µM); against Staphylococcus aureus, 3.12 µg/mL (≈ 8.5 µM); in the assay with Pseudomonas aeruginosa, 12.5 µg/mL (≈ 34 µM). In addition, the figures for the IC50 (in the assay with HEp-2; in the assay on HeLa; in assay [1]) were under 25 µg/mL, under 25 µg/mL and 6.25 µg/mL (≈ 17 µM), respectively. The Activity in the assay on Rattus norvegicus [2] is recorded as 1.1825 mm3; with Rattus norvegicus [3], 1.1425 mm3; in the assay on Rattus norvegicus [4], 1.23 mm3; with Rattus norvegicus [6], 1.11 mm3; in the assay with Rattus norvegicus [5], 1.135 mm3.
Take `CC(C)Cc1ccc(C(C)C(=O)O)cc1` (configuration not stated) [IBUPROFEN]: the inhibition in vivo at 100 mg/kg with Rattus norvegicus [7] is 65.3%.
On to `O=c1c2cc(Cl)ccc2nc(-c2ccccc2)n1Cc1ccc(F)cc1`, for which the minimum inhibitory concentration (MIC) against Aspergillus flavus turned out to be 25 µg/mL (≈ 68.5 µM); in the assay on Candida albicans, 12.5 µg/mL (≈ 34.3 µM); against Escherichia coli, 1.56 µg/mL (≈ 4.28 µM); in the assay on Staphylococcus aureus, 0.78 µg/mL (≈ 2.14 µM); with Pseudomonas aeruginosa it was 3.12 µg/mL (≈ 8.55 µM). The figures for the IC50 (in the assay with HEp-2; in the assay on HeLa; in assay [1]) were 10.9 µg/mL (≈ 29.8 µM), 41.5 µg/mL (≈ 114 µM) and 17.9 µg/mL (≈ 49.2 µM), respectively. The Activity with Rattus norvegicus [2] came to 1.2875 mm3; in the assay with Rattus norvegicus [3] it was 1.24 mm3; with Rattus norvegicus [4] it was 1.135 mm3; in the assay with Rattus norvegicus [6], 1.285 mm3; in the assay on Rattus norvegicus [5], 1.1525 mm3.
As for `O=c1c2cc(Cl)ccc2nc(-c2ccccc2)n1Cc1ccc(Cl)cc1`, the minimal inhibitory concentration (MIC) with Aspergillus flavus is 25 µg/mL (≈ 65.6 µM); against Candida albicans, 12.5 µg/mL (≈ 32.8 µM); with Escherichia coli, 1.56 µg/mL (≈ 4.09 µM); against Staphylococcus aureus, 0.78 µg/mL (≈ 2.05 µM); against Pseudomonas aeruginosa, 3.12 µg/mL (≈ 8.18 µM). In addition, the IC50 in the assay with HEp-2 was over 50 µg/mL; in the assay with HeLa it was over 200 µg/mL; in assay [1] it was over 50 µg/mL. Moreover, the Activity stood at 1.1825 mm3 with Rattus norvegicus [2], 1.2325 mm3 in the assay with Rattus norvegicus [3], 1.195 mm3 in the assay on Rattus norvegicus [4] and 1.265 mm3 in the assay on Rattus norvegicus [6]. For the same molecule, the inhibition in vivo at 100 mg/kg in the assay on Rattus norvegicus [8] was found to be 72.9%.
As to `CN(C)CCn1c(-c2ccccc2)nc2ccc(Cl)cc2c1=O`, the minimal inhibitory concentration (MIC) with Aspergillus flavus amounted to 100 µg/mL (≈ 305 µM); against Candida albicans, 50 µg/mL (≈ 153 µM); in the assay on Escherichia coli it was 3.12 µg/mL (≈ 9.52 µM); against Staphylococcus aureus, 1.56 µg/mL (≈ 4.76 µM); in the assay on Pseudomonas aeruginosa, 6.25 µg/mL (≈ 19.1 µM). Further, the concentration for half-maximal inhibition (IC50) in the assay with HEp-2 was 20.5 µg/mL (≈ 62.5 µM); in the assay with HeLa, over 200 µg/mL; in assay [1], 33.4 µg/mL (≈ 102 µM). Also, the Activity in the assay with Rattus norvegicus [2] amounted to 1.215 mm3; in the assay with Rattus norvegicus [3], 1.165 mm3; in the assay on Rattus norvegicus [4] it was 1.1875 mm3; in the assay on Rattus norvegicus [5] it was 1.1825 mm3. For the same molecule, the inhibition in vivo at 100 mg/kg in the assay on Rattus norvegicus [7] was 88.4%.
Regarding `O=c1c2cc(Cl)ccc2nc(-c2ccccc2)n1-c1ccc(F)c(Cl)c1`, the minimum inhibitory concentration (MIC) against Aspergillus flavus is over 100 µg/mL; in the assay with Candida albicans, over 100 µg/mL; against Escherichia coli it was over 100 µg/mL; against Staphylococcus aureus, over 100 µg/mL; in the assay on Pseudomonas aeruginosa, 100 µg/mL (≈ 260 µM). Also, the IC50 in the assay on HEp-2 is under 6.25 µg/mL; in the assay with HeLa, under 25 µg/mL; in assay [1], under 6.25 µg/mL. Besides, the Activity was 1.25 mm3 in the assay with Rattus norvegicus [2]; 1.3075 mm3 with Rattus norvegicus [3]; 1.17 mm3 with Rattus norvegicus [4]; 1.3525 mm3 in the assay on Rattus norvegicus [6]; 1.1875 mm3 with Rattus norvegicus [5].
